Reference: publication PMC3145320 (Bioorganic & medicinal chemistry, 2011)

Experiments:
μ-opiate receptor [1] = biological target: T1, μ-opiate receptor (Homo sapiens, UniProt P35372); experiment: biochemical; conditions: for Kb: Ke μ-Antagonism
κ-opioid receptor = κ-opioid receptor (Homo sapiens, UniProt P41145); experiment: [35S]GTP-γ-S binding, κ-antagonism; type: biochemical; conditions: n=3; for Kb: Ke κ-Antagonism
μ-opiate receptor [2] = biological target: T1, μ-opiate receptor; type: binding; conditions: read-out: Ki μ
κ-opiate receptor = κ-opiate receptor (Homo sapiens, UniProt P41145); experiment: [3H] opioid receptor binding, κ; conditions: read-out: Ki κ; CHO cells stably transfected, expressing κ-opiate receptor; n=3
Chain of κ-opiate receptor (P41145 whole entry): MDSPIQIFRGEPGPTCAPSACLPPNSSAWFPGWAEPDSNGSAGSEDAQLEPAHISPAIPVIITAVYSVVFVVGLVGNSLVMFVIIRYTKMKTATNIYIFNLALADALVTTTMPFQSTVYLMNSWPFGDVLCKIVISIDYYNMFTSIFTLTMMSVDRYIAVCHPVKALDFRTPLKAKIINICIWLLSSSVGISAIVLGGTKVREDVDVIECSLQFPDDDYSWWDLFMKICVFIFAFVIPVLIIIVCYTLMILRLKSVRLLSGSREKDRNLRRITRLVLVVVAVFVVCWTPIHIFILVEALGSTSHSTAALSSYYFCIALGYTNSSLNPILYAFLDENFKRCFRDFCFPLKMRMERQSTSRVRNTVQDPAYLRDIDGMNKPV

T1 sequence (P35372 whole entry): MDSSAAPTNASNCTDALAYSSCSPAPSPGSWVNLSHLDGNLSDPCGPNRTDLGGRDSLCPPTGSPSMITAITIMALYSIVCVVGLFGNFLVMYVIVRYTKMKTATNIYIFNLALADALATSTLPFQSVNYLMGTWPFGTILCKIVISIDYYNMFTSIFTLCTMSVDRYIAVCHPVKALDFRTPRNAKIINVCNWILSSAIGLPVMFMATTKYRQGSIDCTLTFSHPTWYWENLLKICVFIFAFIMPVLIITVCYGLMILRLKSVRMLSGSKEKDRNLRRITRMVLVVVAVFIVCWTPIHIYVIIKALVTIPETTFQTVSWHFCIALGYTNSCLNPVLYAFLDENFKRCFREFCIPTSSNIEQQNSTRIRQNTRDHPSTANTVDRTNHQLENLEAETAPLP
Chain of κ-opioid receptor (P41145 whole entry): as the sequence (P41145 whole entry) above

Molecule	Kb (μ-opiate receptor [1]) [nM]	Kb (κ-opioid receptor) [nM]	Ki (μ-opiate receptor [2]) [nM]	Ki (κ-opiate receptor) [nM]	Ke μ-Antagonism (μ-opiate receptor [1]) [nM]	Ke κ-Antagonism (κ-opioid receptor) [nM]
Oc1cccc2c1O[C@@H]1CC[C@@H]3C[C@]21CCN3CCc1ccccc1 (racemic) [rac 5, rac-(4R,6aR,11bR)-2,3,4,5,6,6a-hexahydro-3-phenethyl-1H-4,11b-methanobenzofuro[3,2-d]azocin-8-ol]	274 ± 49	163 ± 29				
Oc1ccc2c(c1)[C@]13CCN(CCc4ccccc4)[C@H](CC[C@H]1O2)C3 (racemic) [rac 10, rac-(4R,6aR,11bR)-2,3,4,5,6,6a-hexahydro-3-phenethyl-1H-4,11b-methanobenzofuro[3,2-d]azocin-10-ol]		46 ± 9				
Oc1cccc2c1O[C@H]1CC[C@@H]3C[C@]21CCN3CCc1ccccc1 (stereo in doubt) [Compound 19b, (4R,6aS,11bR)-2,3,4,5,6,6a-Hexahydro-3-phenethyl-1H-4,11b-methanobenzofuro[3,2-d]azocine-8-ol]	31 ± 6	22 ± 6				
Oc1ccc2c(c1)[C@]13CCN(CCc4ccccc4)[C@H](CC[C@@H]1O2)C3 [Compound 16a, (4R,6aS,11bR)-2,3,4,5,6,6a-Hexahydro-3-phenethyl-1H-4,11b-methanobenzofuro[3,2-d]azocine-10-ol]	47 ± 9	100 ± 3				
Oc1ccc2c(c1)[C@@]13CCN(CCc4ccccc4)[C@@H](CC[C@H]1O2)C3 [Compound 16b, (4S,6aR,11bS)-2,3,4,5,6,6a-Hexahydro-3-phenethyl-1H-4,11b-methanobenzofuro[3,2-d]azocine-10-ol]	227 ± 33	103 ± 17				
(4S,6aR,11bS)-2,3,4,5,6,6a-hexahydro-3-phenethyl-1H-4,11b-methanobenzofuro[3,2-d]azocine-8-ol [Compound 19a]			384 ± 38	367 ± 19	328 ± 67	761 ± 191
